Read-outs that look alike come from different tables or passages of the source.
Legend:
Assay type in all cases: cell-based, human
[1] = system: Jurkat cells; assay: Single-dose CCK-8 cell viability screening (suspension cells); settings: Homo sapiens, 48 h
Experimental: (§1) In this example, the anti-cancer properties of the BB analogues described in Table 1d were evaluated. Single-dose screening approach is used for initial testing to assess the cytotoxic effect of the BB analogues (also referred to as ‘BB compounds’) on Jurkat cells (human T cell leukaemia cells) and A549 cells (human lung cancer cells).
Method for Suspension Cells (Jurkat Cells)
5000 cells/90 uL were seeded in 96-well plates. 10 uL of 500 uM compound (10×) was added to each well in 6 replicates. The following controls were prepared.
Blank control: 10 uL 1% DMSO in media with no cells per well.
Positive control: 10 uL of 100 uM 5-flurouracil (10×) per well.
Negative control: 10 uL of 1% DMSO in media (10×) per well.
Each 96-well plate included 7 BB analogues and the complete set of controls (in 6 replicates).
(§2) Cells were incubated at 37° C.+5% CO2 for 46 hours. 10 uL of CCK8 solution was added to each well. Cells were then incubated at 37° C.+5% CO2 for 2 hours. Absorbance at 450 nm was measured using a multiplate reader.
(§3) Viability was calculated using the equation: […]
(§4) The benchmark in Table 2 was used to define the activities of each compound.

[2] = system: A549 cells; assay: Single-dose CCK-8 cell viability screening (adherent cells); settings: Homo sapiens, read-out: % Viability (50 uM, 48 h) A549
Experimental: as §1
(§5) Method for Adherent Cells (A549 Cells)
(§6) In this example, 5000 cells/100 uL were seeded in 96-well plates and incubate at 37° C.+5% CO2 overnight. Media were replaced with 100 uL of 50 uM compound per well in 6 replicates. The following controls were prepared.
(§7) Blank control: 100 uL 0.1% DMSO in media with no cells per well.
(§8) Positive control: 100 uL of 10 uM 5-flurouracil per well.
(§9) Negative control: 100 uL of 0.1% DMSO in media per well.
(§10) Each 96-well plate included 7 compounds and the complete set of controls (in 6 replicates).
as §2, §3, §4

[3] = as above; settings: Homo sapiens, average of A549 and Jurkat % viability, 50 uM, 48 h
Experimental: as §1, §5, §6, §7, §8, §9, §10, §2, §3, §4

[4] = Jurkat, Jurkat cells, 50 uM, CCK-8, read-out: % Viability (50 uM, 48 h) Jurkat
[5] = A549, 48 h, A549 cells, 50 uM, 48 h, CCK-8
[6] = Jurkat, read-out: % Viability (50 uM, 48 h) Jurkat

| Compound | viability at 50 µM [1, 4] | viability at 50 µM [2, 5] | viability at 50 µM ([3]; A549, 48 h) | viability at 50 µM [1, 6] | viability at 50 µM ([2]; A549, 48 h) | viability at 50 µM [3] | viability at 50 µM ([1]; Jurkat cells, 50 uM, CCK-8, read-out: % Viability (50 uM, 48 h) Jurkat) | viability at 50 µM ([2]; A549 cells, 50 uM, 48 h, CCK-8) |
| --- | --- | --- | --- | --- | --- | --- | --- | --- |
| CC(C)(C)[C@]1(O)C[C@@H]2OC(=O)C[C@@]23C(=O)O[C@@H]2N(CCC4CCNCC4)C(=O)C(OC(=O)c4ccccc4)[C@]213 (stereo in doubt) [XBB-024, 4-(2-((3aS,5aS,8S,8aS,9R,10aS)-8-(benzoyloxy)-9-(tert-butyl)-9-hydroxy-2,4,7-trioxohexahydro-4H,9H-furo [3″,2″:2′,3′]cyclopenta [1′,2′:3,4]furo[2,3-b]pyrrol-6(5aH)-yl)ethyl)piperidin-1-ium chloride] | 97.8% | 94.7% | 96.2% | – | – | – | – | – |
| CC(C)(C)[C@]1(O)C[C@@H]2OC(=O)C[C@@]23C(=O)O[C@@H]2N(CCN4CCNCC4)C(=O)C(OC(=O)c4ccccc4)[C@]213 (stereo in doubt) [XBB-028, 4-(2-((3aS,5aS,8S,8aS,9R,10aS)-8-(benzoyloxy)-9-(tert-butyl)-9-hydroxy-2,4,7-trioxohexahydro-4H,9H-furo [3″,2″:2′,3′]cyclopenta [1′,2′:3,4]furo [2,3-b]pyrrol-6(5aH)-yl)ethyl)piperazin-1-ium chloride] | 90.5% | 88.8% | 89.7% | – | – | – | – | – |
| CN1C(=O)[C@H](OC(=O)c2ccccc2)[C@@]23[C@@H]1OC(=O)[C@@]21CC(=O)O[C@H]1C[C@@]3(O)C(C)(C)C [DW168, (3aS,5aS,8R,8aS,9R,10aS)-9-(tert-butyl)-9-hydroxy-6-methyl-2,4,7-trioxooctahydro-4H,9H-furo [3″,2″:2′,3′]cyclopenta [1′,2′:3,4]furo[2,3-b]pyrrol-8-ylbenzoate] | 101% | 105% | 103% | – | – | – | – | – |
| CC(C)(C)[C@]1(O)C[C@@H]2OC(=O)C[C@@]23C(=O)O[C@@H]2N(C45CC(C4)C5)C(=O)[C@H](OC(=O)c4ccccc4)[C@]213 [DW172, (3aS,5aS,8R,8aS,9R,10aS)-6-(bicyclo[1.1.1]pentan-1-yl)-9-(tert-butyl)-9-hydroxy-2,4,7-trioxooctahydro-4H,9H-furo [3″,2″:2′,3′]cyclopenta [1′,2′:3,4]furo[2,3-b]pyrrol-8-yl benzoate] | – | – | – | 94.4% | 98.7% | 96.6% | – | – |
| CC(C)(C)[C@]1(O)C[C@@H]2OC(=O)C[C@@]23C(=O)O[C@@H]2N(C4COC4)C(=O)[C@H](OC(=O)c4ccccc4)[C@]213 [DW182, (3aS,5aS,8R,8aS,9R,10aS)-9-(tert-butyl)-9-hydroxy-6-(oxetan-3-yl)-2,4,7-trioxooctahydro-4H,9H-furo [3″,2″:2′,3′]cyclopenta [1′,2′:3,4]furo [2,3-b]pyrrol-8-yl benzoate] | 101% | 114% | 107% | – | – | – | – | – |
| CC(C)(C)[C@]1(O)C[C@@H]2OC(=O)C[C@@]23C(=O)O[C@@H]2N(CC4CCC4)C(=O)[C@H](OC(=O)c4ccccc4)[C@]213 [DW184, (3aS,5aS,8R,8aS,9R,10aS)-9-(tert-butyl)-6-(cyclobutylmethyl)-9-hydroxy-2,4,7-trioxooctahydro-4H,9H-furo [3″,2″:2′,3′]cyclopenta [1′,2′:3,4]furo [2,3-b]pyrrol-8-yl benzoate] | 68.7% | 93.5% | 81.1% | – | – | – | – | – |
| CC(C)(C)[C@]1(O)C[C@@H]2OC(=O)C[C@@]23C(=O)O[C@@H]2N(CC4CC4)C(=O)[C@H](OC(=O)c4ccccc4)[C@]213 [DW189, (3aS,5aS,8R,8aS,9R,10aS)-9-(tert-butyl)-6-(cyclopropylmethyl)-9-hydroxy-2,4,7-trioxooctahydro-4H,9H-furo [3″,2″:2′,3′]cyclopenta [1′,2′:3,4]furo[2,3-b]pyrrol-8-yl benzoate] | 95.3% | 107% | 101% | – | – | – | – | – |
| CC(C)(C)[C@]1(O)C[C@@H]2OC(=O)C[C@@]23C(=O)O[C@@H]2N(CC4COC4)C(=O)[C@H](OC(=O)c4ccccc4)[C@]213 [DW191, (3aS,5aS,8R,8aS,9R,10aS)-9-(tert-butyl)-6-(1-oxetan-3-ylmethyl)-9-hydroxy-2,4,7-trioxooctahydro-4H,9H-furo [3″,2″:2′,3′]cyclopenta [1′,2′:3,4]furo [2,3-b]pyrrol-8-yl benzoate] | 105% | 101% | 103% | – | – | – | – | – |
| CC(C)(C)[C@]1(O)C[C@@H]2OC(=O)C[C@@]23C(=O)O[C@@H]2N(N)C(=O)[C@H](O)[C@]213 [JW072, (3aS,5aS,8R,8aS,9R,10aS)-6-amino-9-(tert-butyl)-8,9-dihydroxytetrahydro-4H,9H-furo [3″,2″:2′,3′]cyclopenta [1′,2′:3,4]furo [2,3-b]pyrrole-2,4,7(3H,8H)-trione] | – | – | – | – | – | 100% | 97.2% | 103% |
| CC(C)(C)[C@]1(O)C[C@@H]2OC(=O)C[C@@]23C(=O)O[C@@H]2N(C4CCCC4)C(=O)[C@H](OC(=O)c4ccccc4)[C@]213 [JW081, (3aS,5aS,8R,8aS,9R,10aS)-9-(tert-butyl)-6-cyclopentyl-9-hydroxy-2,4,7-trioxooctahydro-4H,9H-furo[3″,2″:2′,3′]cyclopenta [1′,2′:3,4]furo[2,3-b]pyrrol-8-yl benzoate] | – | – | – | 87.1% | 89.5% | 88.3% | – | – |
| COc1cccc(N2C(=O)[C@H](OC(=O)c3ccccc3)[C@@]34[C@@H]2OC(=O)[C@@]32CC(=O)O[C@H]2C[C@@]4(O)C(C)(C)C)c1 [JW092, (3aS,5aS,8R,9R,10aS)-9-(tert-butyl)-9-hydroxy-6-(3-methoxyphenyl)-2,4,7-trioxodecahydrofuro [3″,2″:2′,3′]cyclopenta [1′,2′:3,4]furo [2,3-b]pyrrol-8-yl benzoate] | 69.3% | 53.7% | 61.5% | – | – | – | – | – |
| COc1ccc(N2C(=O)[C@H](OC(=O)c3ccccc3)[C@@]34[C@@H]2OC(=O)[C@@]32CC(=O)O[C@H]2C[C@@]4(O)C(C)(C)C)cc1 [JW093, (3aS,5aS,8R,9R,10aS)-9-(tert-butyl)-9-hydroxy-6-(4-methoxyphenyl)-2,4,7-trioxodecahydrofuro [3″,2″:2′,3′]cyclopenta [1′,2′:3,4]furo [2,3-b]pyrrol-8-yl benzoate] | 66.3% | 68.7% | 67.5% | – | – | – | – | – |
| CC(C)(C)[C@]1(O)C[C@@H]2OC(=O)C[C@@]23C(=O)O[C@@H]2N(c4ccc5ccccc5c4)C(=O)[C@H](OC(=O)c4ccccc4)[C@]213 [JW094, (3aS,5aS,8R,9R,10aS)-9-(tert-butyl)-9-hydroxy-6-(naphthalen-2-yl)-2,4,7-trioxodecahydrofuro [3″,2″:2′,3′]cyclopenta [1′,2′:3,4]furo [2,3-b]pyrrol-8-yl benzoate] | 76.9% | 76.5% | 76.7% | – | – | – | – | – |
| COc1ccccc1N1C(=O)[C@H](OC(=O)c2ccccc2)[C@@]23[C@@H]1OC(=O)[C@@]21CC(=O)O[C@H]1C[C@@]3(O)C(C)(C)C [JW095, (3aS,5aS,8R,9R,10aS)-9-(tert-butyl)-9-hydroxy-6-(2-methoxyphenyl)-2,4,7-trioxodecahydrofuro [3″,2″:2′,3′]cyclopenta [1′,2′:3,4]furo [2,3-b]pyrrol-8-yl benzoate] | 69% | 87.2% | 78.1% | – | – | – | – | – |

Source: US20250144069A1, “BILOBALIDE DERIVATIVE COMPOUNDS FOR TREATING NEUROLOGICAL DISEASES AND CANCERS” (The Chinese University of Hong Kong, priority 2023, published 2025)
